Measurements as given in US6350762B1, “Dihydropyridine derivative” (Ajinomoto Co., Inc., priority 1997, dated 2002).

Experiments:
[1] = molecular target: T1, L-type calcium channel (Rattus norvegicus, UniProt P22002); assay: Activity of inhibiting L-type calcium channel: relaxation of KCl contraction of isolated rat thoracic aorta; set-up: species or system Wistar rats; details: for IC50: KCl contraction of isolated rat thoracic aorta, read-out: L-type inhibition IC50
T1 construct: The slips of thoracic aorta extracted from Wistar rats were used; from tissue; host or cells: isolated thoracic aorta rings of Wistar rats, endothelium removed
Method: Activity of Inhibiting the Action of L-type Calcium Channel
The activity of the dihydropyridine derivatives of the present invention to inhibit the action of L-type calcium channel was determined by the following method wherein the relaxation reaction on the KCl contraction of isolated thoracic aorta samples of rats was utilized.
1) Preparation of Isolated Thoracic Aorta Samples of Rats
The slips of thoracic aorta extracted from Wistar rats were used. Blood vessels were cut to form rings having a width of about 3 mm. The endothelial cells of the blood vessels were mechanically removed. The samples were suspended in a strain gauge in Tyrode solution (comprising 158.3 mM of NaCl, 4.0 mM of KCl, […] of MgCl2, 0.42 mM of NaH2PO4, 10 mM of NaHCO3, 2 mM of CaCl2 and 5 mM of glucose) in which a gaseous mixture of O2 (95%) and CO2 (5%) was introduced, to apply a stationary tension of 2 g. The tension of the blood vessel was recorded with a multipen recorder (Rikadenki Kogyo Co., Ltd.) by using a transducer after the amplification with a tension amplifier (EF-601G; Nihon Kohden Corporation). The experiments were conducted at 37° C.
2) Determination of Relaxation Reaction Against KCl contraction
After the tension was stabilized, the nutrient solution in the sample tank was replaced with High K^+ Tyrode solution (comprising 112.3 mM of NaCl, 50 mM of KCl, 1.05 mM of MgCl2, 0.42 mM of NaH2PO4, 10 mM of NaHCO3, 2 mM of CaCl2 and 5 mM of glucose) to cause the contraction reaction. 30 minutes after, the solution in the sample tank was replaced with normal Tyrode solution. Then, the solution in the sample tank was again replaced with High K^+ Tyrode solution and the contraction reaction was observed. After the maximum contraction reaction occurred, a test compound was cumulatively added to realize concentrations of 10^−9, 10^−8, 10^−7 and 10^−6 M at intervals of 90 minutes. The inhibition rate of the test compound on the maximum contraction reaction was employed as the index of the activity of inhibiting the action of L-type calcium channel.

[2] = molecular target: T2, N-type calcium channel (Rattus norvegicus, UniProt Q02294); assay: Inhibition activity of N-type calcium channel (patch clamp method), rat maxillary sympathetic ganglion cells; assay type: cell-based, Wistar rats; details: 0.1 uM compound, whole cell voltage clamp, barium current
T2 construct: from tissue; host or cells: acutely dissociated sympathetic ganglion cells of Wistar rats (2 to 4 weeks old)
Method: Inhibition Activity of N-type Calcium Channel (Patch Clamp Method)
1) Preparation of Cells of Maxillary Sympathetic Ganglions of Rats
The cervix of each of Wistar rats (2 to 4 weeks old) was opened to expose the maxillary ganglions under anesthesia with pentobarbital. A pair of the ganglions were removed and immediately washed with Ca^2+-free Tyrode solution cooled with ice. Each ganglion was cut into 3 or 4 pieces and kept in the Ca^2+-free Tyrode solution for 15 minutes. Then, these pieces were treated with papain [Washington Biochemicals (lot#35J557); 20 U/ml] for 20 minutes and then with a mixture of 2-type collagenase [Washington Biochemicals (CLS2); 5900 U/ml]and dispase [Calbiochem (lot#1312973); 16 mg/ml] for one hour. After enzymatic treatment, the ganglion cells were mechanically isolated by pipetting. The isolated ganglion cells were used for the experiments within 6 hours.
2) Determination of Calcium Electric Current
The calcium electric current was determined by the whole cell voltage clamp method under the fixed membrane potential. The pipette electrode was pulled from glass tube (inner diameter: 1.5 mm; Narishige) in two stage of a vertical pipette puller (PB-7; Narishige). The ionic current was amplified with a patch amplifier (CEZ-2300; Nihon Kohden Corporation). The noises were cut at 10 kHz (E-3201B, NF Electronic Instrument) and then the ionic current was monitored on a storage oscilloscope (DS-9121, Iwatsu) and, at the same time, recorded with a DAT data recorder (RD-120TE, TEAC). Then it was passed through a 1 kHz filter and recorded in a computer (Compaq DeskPro) with pCLAMP software (Axon Instrument) of 3 kHz. All the experiments were performed at room temperature (25±2° C.). In the measurement of the current through the calcium channel, 10 mM barium (composition of the solution: shown below) was used in place of calcium as the charge carrier. The transmission of barium through the calcium channel was higher than that of calcium in the sympathetic ganglion cells, and the calcium-dependent channel inactivation was slight when barium was used.
The test compounds were rapidly administered by Y-tube method by Murase et al. [Brain Res. 525, 84 (1990)]. Each compound was dissolved in DMSO preparing 10 mM mother solution. At the highest drug concentration used, the vehicle (0.1%) had no significant effect on the calcium electric current.
Composition of Normal Tyrode's solution: NaCl; 143, KCl; 4, MgCl2; 0.5; CaCl2; 1.8, glucose; 5.5, NaH2PO4; 0.33, HEPES; 5 (Mm). The pH was adjusted to 7.4 with tris-OH.
Composition of Ca-free Tyrode's solution: the same as that of the Normal Tyrode's solution except that it was free of CaCl2.
External solution for the determination of calcium electric current (mM): TEACl; 144, CsCl;. […]

[3] = molecular target: T3, N-type calcium channel (Homo sapiens, UniProt Q00975); assay: Activity of inhibiting N-type calcium channel (fluorescent dye method), IMR-32 cells; assay type: cell-based; details: fluorescent dye (fura-2) method, 60 mM KCl stimulation, 1 μM Nifedipine present; for IC50: read-out: N-type inhibition pIC50 (converted)
T3 construct: Human neuroblastoma cell IMR-32 was obtained from ATCC (American Type Culture Collection); host or cells: IMR-32 human neuroblastoma cells, differentiated with dibutyl cAMP and bromodeoxyuridine
Method: Activity of Inhibiting the Action of N-type Calcium Channel (Fluorescent Dye Method):
Human neuroblastoma cell IMR-32 was obtained from ATCC (American Type Culture Collection). The culture medium was prepared by adding 2 mM of L-glutamine (GIBCO), 1 mM of sodium pyruvate of pH 6.5 (GIBCO), a liquid antibiotic/antimicotic mixture (GIBCO) and 10% fetal calf serum (Cell Culture Technologies) to an Eagle minimum essential medium (GIBCO) free of Phenol Red and containing earle's salts supplyment. 3 ml of 1×10^5/ml IMR-32 cells was spread on a glass dish (Iwaki Glass Co., Ltd.) having a bottom diameter of 35 mm, which had been treated with poly-D-lysine (SIGMA) and also with collagen (COLLAGEN VITROGEN 100; a product of Collagen Co.). After the culture for 2 days, 1 mM (final concentration) of dibutyl cAMP and 2.5 μM of bromodeoxyuridine (SIGMA) were added to the culture mixture. After the culture for additional 10 to 14 days, the cells were used for the activity determination. The IMR-32 cell medium prepared as described above was replaced with Eagle minimum essential medium (GIBCO) containing 1 ml of 10 μM fura-2/AM (Dojin Kagaku Co.) and earle's salts supplyment but free of Phenol Red, and the incubation was conducted at 25° C. for one hour.
Then the medium was replaced with fura-2/AM-free Eagle minimum essential medium (GIBCO) free of Phenol Red and containing earle's salts supplyment. After conducting the incubation at 37° C. for one hour, the medium was replaced with a recording medium (comprising 20 mM of HEPES-KOH, 115 mM of NaCl, 5.4 mM of KCl, 0.8 mM of MgCl2, 1.8 mM of CaCl2 and 13.8 mM of D-glucose). The N-calcium channel inhibition activity was determined and analyzed with a fluorescent microscope (Nikon corporation) and an image analysis apparatus ARGUS 50 (Hamamatsu Photonics). Namely, a recording medium (comprising 20 mM of HEPES-KOH, 115 mM of NaCl, 5.4 mM of KCl, 0.8 mM of MgCl2, 1.8 mM of CaCl2 and 13.8 mM of D-glucose) containing 1 μM of Nifedipine was applied to the cells and refluxed by Y-tube method for 2 minutes. Then, a 60 mM potassium chloride-containing stimulating agent was rapidly given. Thereafter, 60 mM potassium chloride-containing stimulating agents which further contained 0.1, 1 or 10 μM of a test compound were rapidly and successively administered by Y-tube method to determine the channel inhibition activity. Finally, 60 mM potassium chloride-containing stimulating agent further containing 1 μM of omega conotoxin (Peptide Kenkyu-sho) was rapidly given by Y-tube method to realize 100% inhibition of the N-type calcium channel.

[4] = 10^−7 M compound, inhibition rate on maximum KCl contraction of rat thoracic aorta

T1 sequence (P22002 whole entry): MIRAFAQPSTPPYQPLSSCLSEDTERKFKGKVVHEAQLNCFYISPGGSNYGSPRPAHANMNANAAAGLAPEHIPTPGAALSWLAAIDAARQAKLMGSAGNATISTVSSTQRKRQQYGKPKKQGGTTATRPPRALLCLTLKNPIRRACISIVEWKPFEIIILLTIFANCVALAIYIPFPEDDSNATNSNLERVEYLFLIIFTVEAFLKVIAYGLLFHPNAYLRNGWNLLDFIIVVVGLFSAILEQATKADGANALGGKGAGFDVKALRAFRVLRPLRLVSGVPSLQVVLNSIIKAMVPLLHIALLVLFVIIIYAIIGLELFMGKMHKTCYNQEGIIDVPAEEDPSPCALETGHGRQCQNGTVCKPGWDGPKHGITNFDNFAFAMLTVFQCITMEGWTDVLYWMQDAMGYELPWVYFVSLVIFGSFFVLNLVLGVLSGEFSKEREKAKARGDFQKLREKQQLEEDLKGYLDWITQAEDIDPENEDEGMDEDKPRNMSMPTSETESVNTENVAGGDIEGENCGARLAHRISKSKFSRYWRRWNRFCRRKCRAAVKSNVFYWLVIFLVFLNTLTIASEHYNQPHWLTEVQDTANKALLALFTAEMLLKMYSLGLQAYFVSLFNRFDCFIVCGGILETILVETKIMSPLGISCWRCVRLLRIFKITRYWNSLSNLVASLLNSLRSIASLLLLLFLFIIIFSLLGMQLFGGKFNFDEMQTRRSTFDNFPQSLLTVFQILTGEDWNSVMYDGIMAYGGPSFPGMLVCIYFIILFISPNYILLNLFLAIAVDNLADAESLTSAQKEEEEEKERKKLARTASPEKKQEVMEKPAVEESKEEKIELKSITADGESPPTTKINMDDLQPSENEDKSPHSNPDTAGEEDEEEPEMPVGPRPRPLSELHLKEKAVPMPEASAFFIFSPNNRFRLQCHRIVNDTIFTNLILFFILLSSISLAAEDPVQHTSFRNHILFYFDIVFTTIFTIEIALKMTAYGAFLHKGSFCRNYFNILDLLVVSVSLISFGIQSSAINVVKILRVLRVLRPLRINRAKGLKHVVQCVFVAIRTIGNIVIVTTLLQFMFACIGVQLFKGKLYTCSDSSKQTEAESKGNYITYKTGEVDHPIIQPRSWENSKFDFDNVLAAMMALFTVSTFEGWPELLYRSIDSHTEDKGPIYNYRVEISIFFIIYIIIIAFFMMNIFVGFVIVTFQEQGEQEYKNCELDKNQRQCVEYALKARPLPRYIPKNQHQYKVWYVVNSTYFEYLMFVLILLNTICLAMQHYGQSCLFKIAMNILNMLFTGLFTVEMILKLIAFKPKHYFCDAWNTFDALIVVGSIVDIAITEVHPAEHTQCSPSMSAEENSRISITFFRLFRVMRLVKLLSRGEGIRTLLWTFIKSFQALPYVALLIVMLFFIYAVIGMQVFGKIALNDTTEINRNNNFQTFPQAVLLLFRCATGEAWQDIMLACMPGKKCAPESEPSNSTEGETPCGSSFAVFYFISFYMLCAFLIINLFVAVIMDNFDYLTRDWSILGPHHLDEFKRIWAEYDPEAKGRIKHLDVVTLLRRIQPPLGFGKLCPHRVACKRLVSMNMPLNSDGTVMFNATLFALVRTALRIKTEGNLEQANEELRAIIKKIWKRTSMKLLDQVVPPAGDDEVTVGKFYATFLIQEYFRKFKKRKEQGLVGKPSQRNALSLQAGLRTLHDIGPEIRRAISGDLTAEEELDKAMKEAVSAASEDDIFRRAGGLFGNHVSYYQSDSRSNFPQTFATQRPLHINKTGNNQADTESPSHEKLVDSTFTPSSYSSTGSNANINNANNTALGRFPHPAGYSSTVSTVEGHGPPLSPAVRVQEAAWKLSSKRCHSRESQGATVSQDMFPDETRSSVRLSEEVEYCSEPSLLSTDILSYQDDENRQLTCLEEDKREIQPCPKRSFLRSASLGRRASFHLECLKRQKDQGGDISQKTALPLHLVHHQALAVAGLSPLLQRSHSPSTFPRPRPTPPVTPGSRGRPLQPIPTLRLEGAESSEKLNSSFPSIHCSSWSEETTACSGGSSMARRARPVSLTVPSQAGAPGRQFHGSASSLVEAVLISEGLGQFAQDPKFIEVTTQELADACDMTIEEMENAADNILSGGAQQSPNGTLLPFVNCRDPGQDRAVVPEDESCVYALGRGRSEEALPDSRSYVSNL
T1 sequence (P54290 25-944 partner limits assumed): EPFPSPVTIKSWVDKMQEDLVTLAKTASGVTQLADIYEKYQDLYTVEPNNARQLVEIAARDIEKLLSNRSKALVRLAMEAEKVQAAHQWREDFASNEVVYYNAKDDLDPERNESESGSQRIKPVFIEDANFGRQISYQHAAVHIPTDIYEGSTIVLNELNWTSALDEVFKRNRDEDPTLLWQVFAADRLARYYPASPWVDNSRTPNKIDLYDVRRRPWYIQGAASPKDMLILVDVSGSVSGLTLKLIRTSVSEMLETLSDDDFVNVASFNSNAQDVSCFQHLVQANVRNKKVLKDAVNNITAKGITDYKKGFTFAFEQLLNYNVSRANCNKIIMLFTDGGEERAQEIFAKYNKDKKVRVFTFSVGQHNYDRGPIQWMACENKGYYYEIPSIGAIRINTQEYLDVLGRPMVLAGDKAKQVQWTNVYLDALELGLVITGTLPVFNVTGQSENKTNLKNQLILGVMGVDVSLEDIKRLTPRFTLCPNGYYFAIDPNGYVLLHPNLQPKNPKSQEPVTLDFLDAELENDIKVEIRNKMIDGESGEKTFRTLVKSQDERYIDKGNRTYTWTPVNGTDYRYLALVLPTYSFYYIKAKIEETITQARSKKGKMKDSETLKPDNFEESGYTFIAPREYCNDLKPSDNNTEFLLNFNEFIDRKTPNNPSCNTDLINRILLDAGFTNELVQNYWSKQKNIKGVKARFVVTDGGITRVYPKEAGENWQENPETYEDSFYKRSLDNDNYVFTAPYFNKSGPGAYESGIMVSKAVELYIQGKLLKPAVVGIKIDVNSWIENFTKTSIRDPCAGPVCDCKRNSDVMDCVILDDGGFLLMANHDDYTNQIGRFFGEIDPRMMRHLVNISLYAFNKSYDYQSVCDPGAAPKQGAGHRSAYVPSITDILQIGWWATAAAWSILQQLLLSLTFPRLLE
T1 sequence (P54290 945-1091 partner limits assumed): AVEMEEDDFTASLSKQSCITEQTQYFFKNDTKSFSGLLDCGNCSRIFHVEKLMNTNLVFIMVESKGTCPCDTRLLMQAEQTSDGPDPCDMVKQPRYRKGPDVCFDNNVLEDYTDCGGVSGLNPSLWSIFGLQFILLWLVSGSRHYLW
T1 sequence (P54287 whole entry partner): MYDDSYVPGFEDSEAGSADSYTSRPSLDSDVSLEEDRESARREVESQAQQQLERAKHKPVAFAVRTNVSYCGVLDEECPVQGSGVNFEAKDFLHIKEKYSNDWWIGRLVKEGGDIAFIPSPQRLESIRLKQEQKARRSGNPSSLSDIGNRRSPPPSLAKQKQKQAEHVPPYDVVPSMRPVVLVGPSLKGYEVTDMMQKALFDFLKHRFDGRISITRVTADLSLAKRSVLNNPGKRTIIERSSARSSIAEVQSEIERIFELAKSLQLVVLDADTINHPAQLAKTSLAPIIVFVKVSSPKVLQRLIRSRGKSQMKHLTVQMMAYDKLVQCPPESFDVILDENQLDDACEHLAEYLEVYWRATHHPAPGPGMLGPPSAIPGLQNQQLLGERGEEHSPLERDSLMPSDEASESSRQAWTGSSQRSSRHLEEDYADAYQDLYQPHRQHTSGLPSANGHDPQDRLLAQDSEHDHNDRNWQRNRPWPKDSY

Compound	inhibition at 0.1 µM [1, 4]	IC50 [1]	inhibition at 0.1 µM [2]	IC50 [3]	L-type inhibition 10^−7 M (%) [1, 4]	N-type inhibition 0.1 uM (%) [2]	N-type inhibition pIC50 [3]
CC1=C(C(=O)O)C(c2cccc([N+](=O)[O-])c2)C(C(=O)NC/C=C/c2ccccc2)=C(C)N1 (stereo not shown) [Example 4, 2,6-dimethyl-4-(3-nitrophenyl)-5-(3-phenyl-2-propene-1-ylcarbamoyl)-1,4-dihydropyridine-3-carboxylc acid]	-7%	0.914 µM	16%	1.58 µM			
(3-phenyl-2-propene-1-yl) 4-(3-chlorophenyl)-5-cyano-2,6-dimethyl-1,4-dihydropyridine-3-carboxylate [Example 12]		0.22 µM			21%	24%	5.9
CC1=C(C(=O)O)C(c2cccc(Cl)c2)C(C(=O)NCC=Cc2ccccc2)=C(C)N1 (stereo not shown) [Example 1, 4-(3-chlorophenyl)-2,6-dimethyl-5-(3-phenyl-2-propene-1-ylcarbamoyl)-1,4-dihydropyridine-3-carboxylic acid]	19%	> 1 µM	35%	5.01 µM			
CC1=C(C(=O)O)C(c2cccc(Cl)c2)C(C(=O)NCCC(c2ccccc2)c2ccccc2)=C(C)N1 (stereo not shown) [Example 34, 4-(3-chlorophenyl)-2,6-dimethyl-5-(3,3-diphenylpropylcarbamoyl)-1,4-dihydropyridine-3-carboxylic acid]				0.631 µM			
CC1=C(C(=O)O)C(c2cccc(Cl)c2)C(C(=O)NCC(=O)Nc2ccccc2)=C(C)N1 (stereo not shown) [Example 21, 4-(3-chlorophenyl)-2,6-dimethyl-5-(phenylcarbamoylmethylcarbamoyl)-1,4-dihydropyridine-3-carboxylic acid]				0.794 µM			
CC1=C(C(=O)O)C(c2ccc([N+](=O)[O-])cc2)C(C(=O)NCC=Cc2ccccc2)=C(C)N1 (stereo not shown) [Example 17, 2,6-dimethyl-4-(4-nitrophenyl)-5-[(3-phenyl-2-propene-1-yl)carbamoyl]-1,4-dihydropyridine-3-carboxylic acid]	-6%	> 1 µM	16%	1.58 µM			
CC1=C(C(=O)O)C(c2cccc(C#N)c2)C(C(=O)NCC=Cc2ccccc2)=C(C)N1 (stereo not shown) [Example 10, 4-(3-cyanophenyl)-2,6-dimethyl-5-(3-phenyl-2-propene-1-ylcarbamoyl)-1,4-dihydropyridine-3-carboxylic acid]				2.51 µM			
